Measured values published in patent publication US11505521B2 (Biothea Pharma, Inc., priority 2018, dated 2022).
Counter-ions that a name gives are not always drawn. Like-named read-outs stand apart in the source and are kept apart here.

Experiments:
[1] = sublingual tablet of Example 3, 10 mg epinephrine base, receptor pH 7.4, 37° C.
Method: The in-vitro permeability of the pharmaceutical compositions of Example 3 were tested. The tests were conducted using drug transdermal diffusion test instruments (Brand Huanghai, Model No. RJY-6B), Sartorius balances (Model SQP), an INESA pH meter (Model PHS-3E), a Thermo HPLC (UltiMate 3000 System, UV Wavelength: 205 nm), and Phenomenex Luna columns (5 μm C18 (2), 4.6×250 mm). The column temperature was 40° C. and the autosampler temperature was room temperature. The injection volume was 5 μL.
(§1) Mobile Phase A was prepared by weighing 4.0 g tetramethylammonium bisulfate (MERYER, Batch No. 77957139) and 1.1 sodium 1-heptasulfonate (Admas-beta, Batch No. P1343755), and transferring the materials to a flask. 2 mL of 0.1 mol/L EDTA solution (Brand: Sinopharm Chemical Reagent Co., Ltd., Batch No. 20150410) was added to the flask and the volume was adjusted to 950 mL using water. The solution was mixed and adjusted to a pH of 3.5 with 0.1N sodium hydroxide solution (Brand: Enox, Batch No. 20161201). Mobile Phase B was prepared using methanol. The isocratic elution was used in a proportion of A/B of 85/15. The run time was 10 minutes.
The in vitro diffusion of epinephrine salts were evaluated using Franz cells with an OD of 20 mm and reservoir volume of 7 mL. Dialysis membranes (Spectra/Por® dialysis membranes with 1,000 Da MWCO) were used to simulate sublingual mucous membrane in the vitro permeability tests. The assay content of the active components was detected in receiving pools. A receptor chamber with a magnetic stirrer was filled with phosphate buffer solution (pH 7.4) as the diffusion medium. The water bath was set at 37° C., and water was circulated in the Franz cells.
Each tablet was placed at the center of the donor chamber on the membrane at T0, and 2 mL of the artificial saliva (Brand: Biomart, Brand No. GL0305) was added to facilitate tablet disintegration and dissolution. Aliquots of 1 mL were withdrawn from the receptor chamber at 10, 30, 60, 90, and 120 min. The volumes withdrawn were replenished with fresh medium. Samples were transferred to HPLC vials for HPLC analysis.

[2] = Method: The stability of the pharmaceutical compositions of Example 3 were tested. The stability studies were conducted on packaged epinephrine salts at 25° C./RH 60% and 40° C./RH 75% conditions, as well as samples without packaging and exposed to light (4500 Lux) for one month. The appearance, assay content, and related substances were examined at 5, 7, 14 and 30 days.
(§2) The assay content was tested using Sartorius balances (Model SQP), an INESA pH meter (Model PHS-3E), a Thermo HPLC (UltiMate 3000 System, UV Wavelength: 205 nm), and Phenomenex Luna columns (5 μm C18 (2), 4.6×250 mm). The column temperature was 40° C., and the autosampler temperature was room temperature. The injection volume was 5 μL.
as §1
The assay content was analyzed by dissolving 20 mg of each sample to be examined in 50 mL of Mobile Phase A (0.4 mg/mL) as assay test solution. The sample was used and tested right after it was ready and was protected from light.
as §2, with “purity” for “assay content”, “PhenomenexSynergi” for “Phenomenex Luna”, “(4” for “(5”, “Polar-RP 80 A 250×4.6” for “C18 (2), 4.6×250”, “30°” for “40°”
Mobile Phase A was prepared by weighing 1.136 g of potassium dihydrogen orthophosphate (Brand: CNW, Batch No. A1040040) and 1.74 g of dipotassium hydrogen orthophosphate (Brand: Ourchem, Batch No. 20160219) and transferring into 1000 mL of water. The pH was adjusted to 3.0±0.05 with orthophosphoric acid (Brand: Ourchem, Batch No. 4112K060). The solution was filtered through a 0.45 μm membrane and degassed. Mobile Phase B was prepared using methanol. The run time was 50 minutes.
The purity was analyzed by dissolving 10 mg of each sample to be examined in 25 mL of Mobile Phase A (0.4 mg/mL) as purity and related substance test solution. The sample was used and tested right after it was ready and was protected from light.

physchem [3] = assay: physchem
Method: (§3) The tests were conducted using Sartorius balances (Model SQP), a Thermo HPLC (UltiMate 3000 System, UV Wavelength: 205 nm), and Phenomenex Luna columns (5 μm C18 (2), 4.6×250 mm). The column temperature was 40° C. and the autosampler temperature was room temperature. The injection volume was 5 μL.
as §1, with “using ethanol.” for “using methanol.”, “was 8” for “was 10”
A standard solution was used comprising 10 mg of the standard dissolved in 10 mL of water. The test solution solutions were prepared and water was added at 25±2° C. Every 5 minutes, the solution was sonicated for 30 seconds. The dissolution was observed within 30 minutes to make sure the solution was saturated. The solution was filtered through a 0.45 μm membrane and the solution was diluted to test.

[4] = 20 mg in 20 mL water, 25° C.
Method: The tests were conducted using Sartorius balances (Model SQP) and a pH meter (Brand: INESA, Model No. PHS-3E). 20 mg of the sample was weighed and transferred into a 20 mL volumetric flask with the remainder of the volume comprising water. The solution was mixed. The pH meter was calibrated with pH 4.0 and pH 6.8 standard buffer solutions at 25° C.

physchem [5] = details: titrated with 0.1 mol/L NaOH
Method: The tests were conducted using Sartorius balances (Model SQP) and a potentiometric titrator (Brand: Methrom, Model No. 905 Titrando). 0.17 g of the sample was weighed and transferred into a 50 mL volumetric flask with the remainder of the volume comprising deonized water. The solution was mixed. The solution was titrated with a 0.1 mol/L NaOH solution using a pH indicator to indicate the end point.

physchem [6] = details: n-octanol / pH 3.47 buffer
Method: as §3
as §1, with “using ethanol.” for “using methanol.”, “was 8” for “was 10”
A hydrogen disodium phosphate solution was prepared by weighing 7.1 g of hydrogen disodium phosphate (Brand: Sinopharm Chemical Reagent Co., Ltd., Batch No. 20150910). A citric acid solution was prepared by weighing 5.25 g of hydrated citric acid (Brand: General-Reagent, Batch No. 5949-29-1) and dissolving it in 1000 mL of water. A pH 3.47 buffer solution was prepared by adjusting the pH of the hydrogen disodium phosphate solution to 3.47 with the citric acid solution. An n-octanol buffer solution was prepared by mixing 100 mL of n-octanol (Brand: Chinasun Specialty Products Co., Ltd., Batch No. 20160601) and 100 mL of the pH 3.47 buffer solution, vibrated for 24 hours, which sat for an hour to separate the n-octanol phase and the pH 3.47 buffer phase.
10 mg of the sample was dissolved in 10 mL of the saturated n-octanol solution and mixed completely. 10 mL of the saturated pH 3.47 buffer solution was added and vortexed at 3000 r/min for 1 hour. 1 mL of solution was pipetted from the n-octanol and pH 3.47 phase after an hour. A standard solution was prepared containing 1 mg/mL of the standard in diluent. An LOQ solution was prepared from about 0.1% of the standard solution. An n-octanol phase solution was diluted with 1 mL of methanol to test. The pH 3.47 phase solution was injected directly. The partition coefficient was calculated using the following formula:
[formula] wherein Co is the equilibrium concentration of solute in oil phase, and Cw is the equilibrium concentration of solute in water phase.

[7] = light 4500 Lux, under air, 5 days
[8] = light 4500 Lux, under air, 7 days
[9] = light 4500 Lux, under air, 14 days
[10] = light 4500 Lux, under air, 30 days

## CNC[C@H](O)c1ccc(O)c(O)c1 [epinephrine base, epinephrine]
[1]
  Diffusion content (%) 120 min: 10.5%
[2]; 25° C./60% RH, 0 days
  Related substance (%): 0.13%
[2]; 25° C./60% RH, 5 days
  Content (%): 100.03%
  Related substance (%): 0.14%
[2]; 25° C./60% RH, 7 days
  Content (%): 99.73%
  Related substance (%): 0.14%
[2]; 25° C./60% RH, 14 days
  Content (%): 99.84%
  Related substance (%): 0.12%
[2]; 25° C./60% RH, 30 days
  Content (%): 99.78%
  Related substance (%): 0.14%
[2]; 40° C./75% RH, 0 days
  Related substance (%): 0.13%
[2]; 40° C./75% RH, 5 days
  Related substance (%): 0.16%
[2]; 40° C./75% RH, 7 days
  Content (%): 100.67%
  Related substance (%): 0.15%
[2]; 40° C./75% RH, 14 days
  Content (%): 98.97%
  Related substance (%): 0.17%
[2]; 40° C./75% RH, 30 days
  Content (%): 100.62%
  Related substance (%): 0.20%
[2]; light 4500 Lux, under air, 0 days
  Related substance (%): 0.13%
[2]; [7]
  Content (%): 100.53%
  Related substance (%): 0.15%
[2]; [8]
  Content (%): 99.27%
  Related substance (%): 0.18%
[2]; [9]
  Content (%): 99.21%
  Related substance (%): 0.18%
[2]; [10]
  Content (%): 98.24%
  Related substance (%): 0.21%

## CNC[C@H](O)c1ccc(O)c(O)c1 [epinephrine hydrochloride]
[1]; hydrochloride
  Diffusion content (%) 120 min: 44.0%

## epinephrine fumarate
Physchem [3]; water, 25±2° C.
  Solubility: 38.9 mg/mL
[4]
  pH: 3.77
Physchem [5]
  pKa: 4.28
Physchem [6]
  LogP: −3.00
[1]
  Diffusion content (%) 120 min: 54.4%

## epinephrine hemi sulfate
Physchem [3]
  Solubility: 17.7 mg/mL
[4]
  pH: 7.14
